Source: patent US11944626B2, “Small molecule inhibitors of ALDH and uses thereof” (The Regents of the University of Michigan, priority 2016, dated 2024)

Tests used:
ALDH1A2 = target: T1, ALDH1A2 (Homo sapiens, UniProt O94788); assay: Inhibition of ALDH isoenzymes (NAD(P)H formation at 340 nm, purified recombinant enzyme); format: biochemical; conditions: for remaining activity at 20 µM: compound at 20 μM, read-out: ALDH1A2 % Control at 20 μM; for IC50: 100-200 nM enzyme, 200 μM NAD+, 100 μM propionaldehyde, pH 7.5, 25° C.
T1 sequence (O94788 1-518): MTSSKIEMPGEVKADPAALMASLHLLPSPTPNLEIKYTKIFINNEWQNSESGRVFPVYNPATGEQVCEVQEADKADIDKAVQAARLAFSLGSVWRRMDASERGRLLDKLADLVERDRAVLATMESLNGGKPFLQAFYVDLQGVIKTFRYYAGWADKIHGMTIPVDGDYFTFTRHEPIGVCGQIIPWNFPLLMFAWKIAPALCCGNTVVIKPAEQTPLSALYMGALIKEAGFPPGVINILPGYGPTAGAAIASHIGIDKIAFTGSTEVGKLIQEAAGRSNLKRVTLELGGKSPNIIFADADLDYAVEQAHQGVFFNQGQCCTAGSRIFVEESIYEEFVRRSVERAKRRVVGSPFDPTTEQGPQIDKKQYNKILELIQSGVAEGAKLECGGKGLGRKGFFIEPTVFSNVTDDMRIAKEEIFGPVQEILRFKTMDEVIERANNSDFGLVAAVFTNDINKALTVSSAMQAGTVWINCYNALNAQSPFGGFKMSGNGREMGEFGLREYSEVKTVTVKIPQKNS

ALDH1A3 = target: T2, ALDH1A3 (Homo sapiens, UniProt P47895); assay: as above; format: biochemical; conditions: for remaining activity at 20 µM: compound at 20 μM, read-out: ALDH1A3 % Control at 20 μM; for IC50: 100-200 nM enzyme, 200 μM NAD+, 100 μM propionaldehyde, pH 7.5, 25° C.
T2 sequence (P47895 1-512): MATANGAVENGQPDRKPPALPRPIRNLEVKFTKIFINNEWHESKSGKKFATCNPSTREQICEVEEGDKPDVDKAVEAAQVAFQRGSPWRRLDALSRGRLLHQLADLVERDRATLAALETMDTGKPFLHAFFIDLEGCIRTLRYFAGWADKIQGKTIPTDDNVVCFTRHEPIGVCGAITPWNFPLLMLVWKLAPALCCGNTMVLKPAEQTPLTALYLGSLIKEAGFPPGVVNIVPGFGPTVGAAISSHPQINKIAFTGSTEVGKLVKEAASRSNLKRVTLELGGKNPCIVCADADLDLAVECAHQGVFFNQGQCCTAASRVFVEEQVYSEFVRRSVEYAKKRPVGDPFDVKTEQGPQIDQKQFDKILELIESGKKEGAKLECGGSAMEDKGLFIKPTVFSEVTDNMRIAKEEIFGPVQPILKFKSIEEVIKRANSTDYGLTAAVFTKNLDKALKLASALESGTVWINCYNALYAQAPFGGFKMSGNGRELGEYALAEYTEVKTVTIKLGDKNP

ALDH1A1 = target: T3, ALDH1A1 (Homo sapiens, UniProt P00352); assay: as above; format: biochemical; conditions: for IC50: 100-200 nM enzyme, 200 μM NAD+, 100 μM propionaldehyde, pH 7.5, 25° C.; for remaining activity at 20 µM: compound at 20 μM, read-out: ALDH1A1 % Control at 20 μM
T3 sequence (P00352 1-501): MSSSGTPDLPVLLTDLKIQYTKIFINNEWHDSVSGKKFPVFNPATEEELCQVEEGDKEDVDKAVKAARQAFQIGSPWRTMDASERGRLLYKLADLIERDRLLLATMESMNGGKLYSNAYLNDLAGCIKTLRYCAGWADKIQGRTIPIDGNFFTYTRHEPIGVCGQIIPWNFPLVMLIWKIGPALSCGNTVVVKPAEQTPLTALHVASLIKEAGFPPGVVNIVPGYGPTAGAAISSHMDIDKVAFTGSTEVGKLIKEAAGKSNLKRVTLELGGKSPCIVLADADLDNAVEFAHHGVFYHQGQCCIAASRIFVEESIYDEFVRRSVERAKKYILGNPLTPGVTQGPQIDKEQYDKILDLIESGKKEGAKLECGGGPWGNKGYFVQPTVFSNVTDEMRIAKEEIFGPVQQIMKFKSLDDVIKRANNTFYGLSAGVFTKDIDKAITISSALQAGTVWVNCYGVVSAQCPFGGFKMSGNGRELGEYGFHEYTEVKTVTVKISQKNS

ALDH2 = target: T4, ALDH2 (Homo sapiens, UniProt P05091); assay: as above; format: biochemical; conditions: compound at 20 μM; read-out: ALDH2 % Control at 20 μM;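 also: run at 25 °C, started by adding substrate after 2 min preincubation, with 100-200 nM ALDH2, 200 µM NAD+, 100 µM propionaldehyde, 1% DMSO in BES buffer pH 7.5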
T4 sequence (P05091 18-517): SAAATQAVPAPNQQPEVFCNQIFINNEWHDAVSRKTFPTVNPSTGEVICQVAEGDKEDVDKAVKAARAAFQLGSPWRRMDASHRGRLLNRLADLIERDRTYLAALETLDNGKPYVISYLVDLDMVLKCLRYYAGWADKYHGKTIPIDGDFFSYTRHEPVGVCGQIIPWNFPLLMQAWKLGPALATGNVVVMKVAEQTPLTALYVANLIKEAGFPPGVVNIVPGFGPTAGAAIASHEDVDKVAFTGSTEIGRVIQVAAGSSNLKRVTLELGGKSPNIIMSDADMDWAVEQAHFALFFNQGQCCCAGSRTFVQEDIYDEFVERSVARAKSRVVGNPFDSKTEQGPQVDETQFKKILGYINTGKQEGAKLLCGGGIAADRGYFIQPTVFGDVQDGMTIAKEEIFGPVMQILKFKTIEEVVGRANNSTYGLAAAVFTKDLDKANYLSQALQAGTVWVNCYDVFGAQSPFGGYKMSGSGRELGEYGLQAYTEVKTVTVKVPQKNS

OVSAHO = OVSAHO Cell Viability; format: cell-based; conditions: for OVSAHO Cell Viability (50 μM) % CD133 + % ctrl / OVSAHO Cell Viability (30 μM) % CD133 + % ctrl: CD133+ cells; for OVSAHO Cell Viability (50 μM) Total Cell % ctrl / OVSAHO Cell Viability (30 μM) Total Cell % ctrl: total cells

SMILES | remaining activity at 20 µM (ALDH1A2) [%] | remaining activity at 20 µM (ALDH1A3) [%] | IC50 (ALDH1A1) [nM] | remaining activity at 20 µM (ALDH2) [%] | OVSAHO Cell Viability (50 μM) % CD133 + % ctrl (OVSAHO) [% ctrl] | OVSAHO Cell Viability (50 μM) Total Cell % ctrl (OVSAHO) [% ctrl] | remaining activity at 20 µM (ALDH1A1) [%] | OVSAHO Cell Viability (30 μM) % CD133 + % ctrl (OVSAHO) [% ctrl] | OVSAHO Cell Viability (30 μM) Total Cell % ctrl (OVSAHO) [% ctrl] | IC50 (ALDH1A2) [nM] | IC50 (ALDH1A3) [nM]
Cn1ncc2c(=O)n(-c3ccccc3O)c(SCc3cccc(F)c3)nc21 [Example 33, 6-((3-fluorobenzyl)thio)-5-(2-hydroxyphenyl)-1-methyl-1H-pyrazolo[3,4-d]pyrimidin-4(5H)-one] | 92 | 100 | 4100 | 88 | 92 | 18 |  |  |  |  | 
CC1(Cn2cc3c(=O)n(-c4ccccc4)c(SCc4cccc(F)c4)nc3n2)COC1 [Example 67, 6-((3-fluorobenzyl)thio)-2-((3-methyloxetan-3-yl)methyl)-5-phenyl-2H-pyrazolo[3,4-d]pyrimidin-4(5H)-one] | 21 | 4 |  | 97 |  |  | 7 | 100 | 16 |  | 
C[C@H](Sc1nc2c(cnn2C)c(=O)n1-c1ccccc1)c1ccccc1 [Example 69, (S)-1-methyl-5-phenyl-6-((1-phenylethyl)thio)-1H-pyrazolo[3,4-d]pyrimidin-4(5H)-one] | 19 | 9 |  | 95 |  |  | 18 | 80 | 25 |  | 
Cn1ncc2c(=O)n(-c3ccccc3)c(SCc3cccc(C(=O)C(F)(F)F)c3)nc21 [Example 57, 1-methyl-5-phenyl-6-((3-(2,2,2-trifluoroacetyl)benzyl)thio)-1H-pyrazolo[3,4-d]pyrimidin-4(5H)-one] |  |  | 73 | 100 |  |  |  | 84 | 29 | 1720 | 1750
CCC(Sc1nc2c(cnn2C)c(=O)n1-c1ccccc1)c1ccccc1 (stereo not drawn) [Example 70, 1-methyl-5-phenyl-6-((1-phenylpropyl)thio)-1H-pyrazolo[3,4-d]pyrimidin-4(5H)-one] | -14 | -10 |  | 90 |  |  | -5 | 56 | 17 |  | 
CCn1ncc2c(=O)n(-c3ccccc3)c(SCc3cccc(F)c3)nc21 [Example 14, 1-ethyl-6-((3-fluorobenzyl)thio)-5-phenyl-1H-pyrazolo[3,4-d]pyrimidin-4(5H)-one] |  |  | 320 | 82 | 39 | 13 |  |  |  | 400 | 250
